The values below come from publication PMC9814587, “Actinomycetes-derived imine reductases with a preference towards bulky amine substrates” (Communications Chemistry, 2022).

A word on the stoichiometry N: it is the number of molecules, sites or subunits per partner or assembly.

For one test, the target named is T1, AspRedAm (Aspergillus oryzae, UniProt Q2TW47).
T1 construct: gene AO090010000708; N-terminal His tag, expressed in E. coli BL21(DE3), Ni-NTA purified; dimer
T1 sequence (Q2TW47 1-295): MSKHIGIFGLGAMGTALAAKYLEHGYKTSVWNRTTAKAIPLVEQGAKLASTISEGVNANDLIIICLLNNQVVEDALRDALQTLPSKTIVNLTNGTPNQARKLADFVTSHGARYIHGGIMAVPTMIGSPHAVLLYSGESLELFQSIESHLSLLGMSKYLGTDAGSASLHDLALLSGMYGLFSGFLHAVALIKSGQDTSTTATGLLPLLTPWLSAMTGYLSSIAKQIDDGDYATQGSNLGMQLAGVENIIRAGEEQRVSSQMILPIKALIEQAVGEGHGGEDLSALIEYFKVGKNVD
In words: reductive amination, HPLC or LC-MS conversion. Format: biochemical. The conditions noted are these: 5 mM each, NADP+/GDH/glucose recycling, pH 7.0.

A further test concerns the target T2, IR-G02 (Streptomyces albidoflavus, UniProt Z9MF94CC36).
T2 construct: N-terminal His6 tag, expressed in E. coli BL21(DE3), Ni-NTA and SEC purified; homodimer with active site at the interface
T2 sequence (Z9MF94CC36 21-319): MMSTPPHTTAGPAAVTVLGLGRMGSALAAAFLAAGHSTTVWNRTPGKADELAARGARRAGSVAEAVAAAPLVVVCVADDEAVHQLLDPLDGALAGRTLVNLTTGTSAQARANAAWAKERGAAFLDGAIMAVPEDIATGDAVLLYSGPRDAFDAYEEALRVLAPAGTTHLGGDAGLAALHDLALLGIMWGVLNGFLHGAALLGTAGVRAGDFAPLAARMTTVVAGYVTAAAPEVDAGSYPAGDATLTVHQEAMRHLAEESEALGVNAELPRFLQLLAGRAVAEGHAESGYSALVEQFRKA
In words: X-ray crystallography. Type of test: binding. The conditions noted are these: co-crystallised with 10 eq NADP+, pH 7.5, 18 °C.

In test [1] the target is IR-G02 (imine reductase from Streptomyces albidoflavus) (Streptomyces albidoflavus). Kind of test: crystal structure; apo IR-G02; sitting-drop vapour diffusion at 18 °C; 0.2 M ammonium acetate, 0.1 M Bis-Tris 5.5, 25 % w/v PEG 3350; protein 20 mg ml^-1.

Consider `NC1CC1` [A, cyclopropylamine], for which the conversion at AspRedAm (amine donor with cyclohexanone) is recorded as over 90%.
As for `NC(=O)c1ccc[n+]([C@@H]2O[C@H](COP(=O)(O)OP(=O)(O)OC[C@H]3O[C@@H](n4cnc5c(N)ncnc54)[C@H](OP(=O)(O)O)[C@@H]3O)[C@@H](O)[C@H]2O)c1` [NADP^+], the X-ray crystallography entry at IR-G02 is “NADP^+ complex of IR-G02 (PDB ID: 7XR5)”.
Turning to `O=C1CCCCC1` [compound 1, cyclohexanone], on AspRedAm (carbonyl donor with cyclopropylamine), the conversion is over 90%.
For the molecule “IR-G02 (imine reductase from Streptomyces albidoflavus) (enzyme)”, the stoichiometry N in test [1] came out at 2.
